Toxic doses and inconclusive results are not listed. Rule for the calls: active = survival T/C of 150% or more; inactive = T/C below 125% in these data.
Tested on: CD2F1 mice, L1210 leukemia ip, survival T/C
Assay: NCI In Vivo Anticancer Drug Screen. Data for tumor model L1210 Leukemia (intraperitoneal) in CD2F1 (CDF1) mice
Conditions: endpoint: mean survival time, higher = longer survival
How it was run: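 Antitumor effect is scored in animals hosting a serially transplanted tumor. Values compare compound-dosed animals against vehicle-only controls as a simple quotient.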

[1] = dose: 5.0 mg/kg/injection, schedule: Q01DX001 (ip), vehicle: saline
[2] = dose: 10.0 mg/kg/injection, schedule: Q01DX001 (ip), vehicle: saline
[3] = dose: 20.0 mg/kg/injection, schedule: Q01DX001 (ip), vehicle: saline
[4] = dose: 40.0 mg/kg/injection, schedule: Q01DX001 (ip), vehicle: saline
[5] = dose: 100.0 mg/kg/injection, schedule: Q01DX001 (ip), vehicle: saline
[6] = dose: 100.0 mg/kg/injection, schedule: Q01DX001 (ip), vehicle: saline with Tween-80
[7] = dose: 200.0 mg/kg/injection, schedule: Q01DX001 (ip), vehicle: saline with Tween-80
[8] = dose: 400.0 mg/kg/injection, schedule: Q01DX001 (ip), vehicle: saline with Tween-80
[9] = dose: 100.0 mg/kg/injection, schedule: Q04DX003 (ip), vehicle: saline with Tween-80
[10] = dose: 200.0 mg/kg/injection, schedule: Q04DX003 (ip), vehicle: saline with Tween-80
[11] = dose: 100.0 mg/kg/injection, schedule: Q01DX009 (ip), vehicle: saline with Tween-80
[12] = dose: 200.0 mg/kg/injection, schedule: Q01DX009 (ip), vehicle: saline with Tween-80
[13] = dose: 400.0 mg/kg/injection, schedule: Q01DX009 (ip), vehicle: saline with Tween-80
[14] = dose: 400.0 mg/kg/injection, schedule: Q04DX003 (ip), vehicle: saline with Tween-80
[15] = dose: 100.0 mg/kg/injection, schedule: Q01DX001 (ip), vehicle: saline sonified
[16] = dose: 200.0 mg/kg/injection, schedule: Q01DX001 (ip), vehicle: saline sonified
[17] = dose: 400.0 mg/kg/injection, schedule: Q01DX001 (ip), vehicle: saline sonified
[18] = dose: 50.0 mg/kg/injection, schedule: Q01DX009 (ip), vehicle: saline with Tween-80
[19] = dose: 400.0 mg/kg/injection, schedule: Q01DX001 (ip), vehicle: saline
[20] = dose: 200.0 mg/kg/injection, schedule: Q01DX001 (ip), vehicle: saline
[21] = dose: 100.0 mg/kg/injection, schedule: Q04DX002 (ip), vehicle: saline
[22] = dose: 200.0 mg/kg/injection, schedule: Q04DX002 (ip), vehicle: saline

Measured: T/C

CC(CCCC#N)[N+](=O)[O-] (centres undefined)
inactive: [1] 102 % of control | [2] 96 % of control | [3] 102 % of control | [4] 102 % of control | [5] 98 % of control

CCC(C)(O)C1CC1 (centres undefined)
inactive: [6] 98 % of control | [7] 103 % of control | [8] 104 % of control

C=NCC#N
inactive: [9] 106 % of control | [10] 101 % of control

O=C(O)c1ccccc1C(=O)OC1CCC2CCCCC2C1 (centres undefined)
inactive: [11] 98 % of control | [9] 97 % of control | [12] 95 % of control | [10] 92 % of control | [13] 98 % of control | [14] 101 % of control

S=c1nc[nH]c2nc(-c3ccccc3)[nH]c12
inactive: dose: 12.5 mg/kg/injection, schedule: Q01DX005 (ip), vehicle: other 98 % of control | dose: 25.0 mg/kg/injection, schedule: Q01DX005 (ip), vehicle: other 96 % of control | dose: 50.0 mg/kg/injection, schedule: Q01DX005 (ip), vehicle: other 102 % of control | dose: 100.0 mg/kg/injection, schedule: Q01DX005 (ip), vehicle: other 98 % of control | dose: 200.0 mg/kg/injection, schedule: Q01DX005 (ip), vehicle: other 93 % of control

COC(=O)C1C(O)C(C)C(O)OC1C(C)C(O)C(C)/C=C\C=C(/C)C(=O)Nc1c(C)c(OC(C)=O)c2c(c1O)C(=O)C(C)=C1OCOC(/C(C)=C/C(C)=O)=C12 (centres undefined)
inactive: dose: 100.0 mg/kg/injection, schedule: Q01DX009 (ip), vehicle: saline 97 % of control | dose: 200.0 mg/kg/injection, schedule: Q01DX009 (ip), vehicle: saline 101 % of control

O=S(=O)(F)c1ccc(N=C=S)cc1
inactive: dose: 12.5 mg/kg/injection, schedule: Q01DX009 (ip), vehicle: saline with Tween-80 107 % of control | dose: 25.0 mg/kg/injection, schedule: Q01DX009 (ip), vehicle: saline with Tween-80 97 % of control | [9] 94 % of control | [10] 97 % of control | [14] 100 % of control

O=P(O)(c1ccccc1CBr)c1ccccc1CBr
inactive: dose: 75.0 mg/kg/injection, schedule: Q01DX001 (ip), vehicle: saline 90 % of control

CCCCCCCCCCCC(CCCCCCCCCC)CCCCCCCCCC
inactive: [15] 101 % of control | [16] 104 % of control | [17] 108 % of control

O=C1C=CC(=O)c2c(O)cccc21
inactive: dose: 3.13 mg/kg/injection, schedule: Q01DX009 (ip), vehicle: saline with Tween-80 94 % of control | dose: 6.25 mg/kg/injection, schedule: Q01DX009 (ip), vehicle: saline with Tween-80 92 % of control | dose: 12.5 mg/kg/injection, schedule: Q04DX003 (ip), vehicle: saline with Tween-80 88 % of control

CCCC/C=C/C(=O)O
inactive: [18] 98 % of control | [11] 98 % of control | [12] 102 % of control

NC1(C(=O)O)CCCC1.[Zn+2]
inactive: [5] 100 % of control | [19] 120 % of control

Nc1cccc(-c2nc3ncnc(N)c3[nH]2)c1
inactive: [9] 94 % of control | [10] 94 % of control | [14] 93 % of control

N#C/C(=N\Nc1ccc(S(=O)(=O)O)cc1)C(N)=O
inactive: [11] 95 % of control | [12] 91 % of control | [13] 94 % of control

OCCOC1CCC(O)C2CCCCC12 (centres undefined)
inactive: [15] 103 % of control | [16] 98 % of control | [17] 109 % of control

O=C1OC(=O)C2C3c4ccccc4C(c4c3c(-c3ccccc3)c3ccccc3c4-c3ccccc3)C12 (centres undefined)
inactive: [6] 87 % of control | [7] 87 % of control | [8] 93 % of control

Nc1ccc2[nH]c(-c3ccc(S(=O)(=O)F)cc3)cc(=O)c2c1
inactive: [11] 102 % of control | [12] 106 % of control | [13] 113 % of control

Cc1nc2c(c(-c3ccccc3)n1)Cc1ccccc1O2
inactive: [5] 98 % of control | [20] 98 % of control | [19] 101 % of control

CCOC(=O)C(C(C)=O)C1=C(Cl)C(=O)c2ccccc2C1=O (centres undefined)
inactive: dose: 75.0 mg/kg/injection, schedule: Q01DX001 (ip), vehicle: other 95 % of control | dose: 150.0 mg/kg/injection, schedule: Q01DX001 (ip), vehicle: other 94 % of control | dose: 300.0 mg/kg/injection, schedule: Q01DX001 (ip), vehicle: other 92 % of control

Clc1ccc(-n2cccc2)cc1
inactive: [9] 98 % of control | [10] 91 % of control | [14] 98 % of control

CC(C)(CNC1CCCCC1)OC(=O)c1ccc(N)cc1
inactive: [1] 102 % of control | [2] 96 % of control | [3] 98 % of control | [4] 104 % of control

NN1CCCCC1
inactive: [21] 103 % of control | [22] 95 % of control

COc1cc2cnccc2cc1O
inactive: dose: 25.0 mg/kg/injection, schedule: Q01DX009 (ip), vehicle: water 95 % of control | dose: 50.0 mg/kg/injection, schedule: Q01DX009 (ip), vehicle: water 101 % of control | dose: 100.0 mg/kg/injection, schedule: Q01DX009 (ip), vehicle: water 96 % of control

ONC(CC(O)(NO)NO)c1ccccc1 (centres undefined)
inactive: [5] 107 % of control | [20] 107 % of control | [19] 108 % of control

[Br][Ge]([c]1ccccc1)([c]1ccccc1)[c]1ccccc1
inactive: [18] 91 % of control | [11] 91 % of control | [12] 86 % of control

Cc1ccc(NS(=O)(=O)c2ccc([N+](=O)[O-])cc2)cc1
inactive: [11] 93 % of control | [12] 98 % of control | [13] 105 % of control

CN(C)Cc1cn(C2CC(O)C(CO)O2)c(=O)[nH]c1=O (centres undefined)
inactive: dose: 12.5 mg/kg/injection, schedule: Q01DX005 (ip), vehicle: water 101 % of control | dose: 25.0 mg/kg/injection, schedule: Q01DX005 (ip), vehicle: water 98 % of control | dose: 50.0 mg/kg/injection, schedule: Q01DX005 (ip), vehicle: water 104 % of control | dose: 100.0 mg/kg/injection, schedule: Q01DX005 (ip), vehicle: water 106 % of control | dose: 200.0 mg/kg/injection, schedule: Q01DX005 (ip), vehicle: water 104 % of control

CCCCCOS(=O)(=O)c1ccc(Cl)c([N+](=O)[O-])c1
inactive: [9] 98 % of control

COC1CC(O)C2OC(c3ccccc3)OCC2O1 (centres undefined)
inactive: [9] 104 % of control | [10] 93 % of control | [14] 107 % of control

CC(C)CN(CC(C)C)c1ccc([N+](=O)[O-])cc1[N+](=O)[O-]
inactive: [11] 97 % of control | [12] 95 % of control | [13] 94 % of control

Fc1c(F)c(F)c(Oc2c(F)c(F)c(Cl)c(F)c2F)c(F)c1F
inactive: [6] 91 % of control | [7] 91 % of control | [8] 88 % of control

CN(C)N=Nc1c(F)c(F)c(C(N)=O)c(F)c1F
inactive: dose: 3.13 mg/kg/injection, schedule: Q01DX009 (ip), vehicle: other 115 % of control | dose: 6.25 mg/kg/injection, schedule: Q01DX009 (ip), vehicle: other 120 % of control | dose: 50.0 mg/kg/injection, schedule: Q01DX009 (ip), vehicle: other 96 % of control | dose: 100.0 mg/kg/injection, schedule: Q01DX009 (ip), vehicle: other 105 % of control

COC1C(CO)OC(O)C(N)C1OC (centres undefined)
inactive: [5] 103 % of control | [20] 103 % of control | [19] 97 % of control

CCCC/C=C\C(=O)O
inactive: [18] 102 % of control | [11] 102 % of control | [12] 98 % of control

CCCC/C=C/C(C)O (centres undefined)
inactive: [18] 100 % of control | [11] 100 % of control | [9] 98 % of control | [12] 95 % of control | [10] 103 % of control | [14] 103 % of control

CC(C)C1OCC(C)(C)C(C)O1 (centres undefined)
inactive: dose: 50.0 mg/kg/injection, schedule: Q04DX002 (ip), vehicle: saline 96 % of control | [21] 96 % of control | [22] 93 % of control

c1ccc(/C(=N\Nc2nc3ccccc3s2)c2ccncc2)cc1
inactive: dose: 100.0 mg/kg/injection, schedule: Q04DX003 (ip), vehicle: Klucel (hydroxypropylcellulose) (HPC) 92 % of control | dose: 200.0 mg/kg/injection, schedule: Q04DX003 (ip), vehicle: Klucel (hydroxypropylcellulose) (HPC) 89 % of control | dose: 400.0 mg/kg/injection, schedule: Q04DX003 (ip), vehicle: Klucel (hydroxypropylcellulose) (HPC) 92 % of control

Reference: PubChem BioAssay AID256 (DTP/NCI, 2004)
